Measurements from patent publication US6608082B1, “Treatment of erectile dysfunction using isoquinoline compound melanocortin receptor ligands” (Lion Bioscience AG, priority 1998, dated 2003).
pIC50: −log10 of the molar value.

Legend:
MCR-4 = target: T1, MCR-4 (Homo sapiens, UniProt P32245); experiment: Melanocortin receptor binding assay, competition with 125I-HP 467, HEK 293 cells expressing hMCR-4; conditions: competition with 125I-HP 467, HEK 293 cells expressing MCR-4; read-out: MC-4 IC50
T1 construct: expressed in transfected cells; host or cells: HEK 293
Outline: (§1)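 Intact-cell competition binding, 2.5 hr at 37 °C, in PBS/10% calf serum/1 mM CaCl2; hMCR-4 cells at 4×10^3 per tube, hMCR-1 cells at 2×10^4 per tube. Filtration on BSA/CaCl2-soaked GF/B, cold 50 mM Tris pH 7.4 washes, scintillation count.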

MCR-1 = target: T2, MCR-1 (Homo sapiens, UniProt Q01726); experiment: Melanocortin receptor binding assay, competition with 125I-HP 467, HEK 293 cells expressing hMCR-1; conditions: for pIC50: competition with 125I-HP 467, HEK 293 cells expressing MCR-1, read-out: MC-1 IC50
T2 construct: expressed in transfected cells; host or cells: HEK 293
Outline: as §1

T1 sequence (P32245 whole entry): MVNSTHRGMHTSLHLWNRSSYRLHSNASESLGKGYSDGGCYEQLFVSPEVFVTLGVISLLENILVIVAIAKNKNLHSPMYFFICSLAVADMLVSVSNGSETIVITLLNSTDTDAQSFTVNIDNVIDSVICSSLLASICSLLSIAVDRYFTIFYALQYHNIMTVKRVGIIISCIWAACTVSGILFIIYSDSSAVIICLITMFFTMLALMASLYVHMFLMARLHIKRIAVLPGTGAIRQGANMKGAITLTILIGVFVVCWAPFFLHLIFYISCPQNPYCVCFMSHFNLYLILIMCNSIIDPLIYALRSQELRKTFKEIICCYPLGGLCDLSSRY
T2 sequence (Q01726 whole entry): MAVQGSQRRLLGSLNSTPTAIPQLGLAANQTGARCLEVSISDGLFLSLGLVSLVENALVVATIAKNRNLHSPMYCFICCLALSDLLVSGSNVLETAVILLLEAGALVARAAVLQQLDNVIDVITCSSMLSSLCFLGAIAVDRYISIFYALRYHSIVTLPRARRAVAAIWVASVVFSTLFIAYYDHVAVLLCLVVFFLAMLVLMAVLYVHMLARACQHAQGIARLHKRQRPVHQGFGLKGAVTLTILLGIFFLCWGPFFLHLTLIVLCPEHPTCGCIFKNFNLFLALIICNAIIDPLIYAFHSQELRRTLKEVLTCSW

Row | Compound | pIC50 (MCR-4) | pIC50 (MCR-1) | effectiveness as MC receptor ligand (MCR-1; binding to MC receptors, Table 1)
1 | CNC(CN)CCCCN1Cc2ccccc2C(CNC2CCCCC2)C1c1ccc(NCc2ccccc2)cc1 (stereo not shown) [TRG 2409-13] | 4.76 | 5.94 | 
2 | CNC(CN)CCCCN1Cc2ccccc2C(CNC2CCCCC2)C1c1ccc(NCC2CCCCC2)cc1 (stereo not shown) [TRG 2409-15] | 4.79 | 5.78 | 
3 | CNC(CN)CCCCN1Cc2ccccc2C(CNC2CCCCC2)C1c1ccc(NCC(C)C)cc1 (stereo not shown) [TRG 2409-16] | 4.68 | 6.02 | 
4 | CNC(CN)CCCCN1Cc2ccccc2C(CNC2CCCCC2)C1c1ccc(NCCOC)cc1 (stereo not shown) [TRG 2409-17] | 4.56 | 5.57 | 
5 | CNC(CN)CCCCN1Cc2ccccc2C(CNC2CCCCC2)C1c1ccc(NCc2ccc(OC)cc2)cc1 (stereo not shown) [TRG 2409-18] | 4.77 | 5.12 | 
6 | CNC(CN)CCCCN1Cc2ccccc2C(CNC2CCCCC2)C1c1ccc(NCCc2ccccc2)cc1 (stereo not shown) [TRG 2409-19] | 4.81 | 5.68 | 
7 | CCCNc1ccc(C2C(CNC3CCCCC3)c3ccccc3CN2CCCCC(CN)NC)cc1 (stereo not shown) [TRG 2409-20] | 4.70 | 6.06 | 
8 | CNC(CN)CCCCN1Cc2ccccc2C(CNC2CCCCC2)C1c1ccc(NCCc2ccc(OC)cc2)cc1 (stereo not shown) [TRG 2409-21] | 4.83 | 5.58 | 
9 | CNC(CN)CCCCN1Cc2ccccc2C(CNC2CCCCC2)C1c1ccc(NCCC2CC3CCC2C3)cc1 (stereo not shown) [TRG 2409-22] | 4.91 | 5.82 | 
10 | CNC(CN)CCCCN1Cc2ccccc2C(CNC2CCCCC2)C1c1ccc(NCCc2ccc(Cl)c(Cl)c2)cc1 (stereo not shown) [TRG 2409-23] | 4.71 | 5.32 | 
11 | CNC(CN)CCCCN1Cc2ccccc2C(CNC2CCCCC2)C1c1ccc(NCc2ccc(Cl)cc2)cc1 (stereo not shown) [TRG 2409-24] | 4.92 | 5.40 | 
12 | CCCCNc1ccc(C2C(CN)c3ccccc3CN2CCCC(CN)NCCc2ccccc2)cc1 (stereo not shown) [TRG 2409-221] | 6.07 | 7.10 | 
13 | CCCCNc1ccc(C2C(CN)c3ccccc3CN2CCCC(CN)NCCc2ccc(OC)cc2)cc1 (stereo not shown) [TRG 2409-223] | 6.20 | 7.00 | 
14 | CCCCNc1ccc(C2C(CN)c3ccccc3CN2CCCC(CN)NCc2ccccc2)cc1 (stereo not shown) [TRG 2409-224] | 5.88 | 6.92 | 
15 | CCCCNc1ccc(C2C(CN)c3ccccc3CN2CCCC(CN)NCc2ccc(Cl)cc2)cc1 (stereo not shown) [TRG 2409-225] | 5.95 | 6.92 | 
16 | NCC(N)CCCCN1Cc2ccccc2C(CNCCc2ccccc2)C1c1ccc(-c2ccccc2)cc1 (stereo not shown) [TRG 2411-1] | 5.91 | 6.22 | 
17 | NCC(CCCCN1Cc2ccccc2C(CNCCc2ccccc2)C1c1ccc(-c2ccccc2)cc1)N1CCCC1 (stereo not shown) [TRG 2411-9] | 5.90 | 6.89 | 
18 | CCCCNC(CN)CCCCN1Cc2ccccc2C(CNCCc2ccccc2)C1c1ccc(-c2ccccc2)cc1 (stereo not shown) [TRG 2411-11] | 5.74 | 6.08 | 
19 | CCCCNC(CN)CCCCN1Cc2ccccc2C(CNC2CCCCC2)C1c1ccc(-c2ccccc2)cc1 (stereo not shown) [TRG 2411-20] | 6.11 | 6.21 | 
20 | NCC(CCCCN1Cc2ccccc2C(CNC2CCCCC2)C1c1ccc(-c2ccccc2)cc1)NCC1CCCCC1 (stereo not shown) [TRG 2411-21] | 6.00 | 6.57 | 
21 | NCC(CCCCN1Cc2ccccc2C(CNC2CCCCC2)C1c1ccc(-c2ccccc2)cc1)NCc1ccccc1 (stereo not shown) [TRG 2411-22] | 5.76 | 6.38 | 
22 | CNCCNC(CN)CCCCN1Cc2ccccc2C(CN)C1c1ccc(-c2ccccc2)cc1 (stereo not shown) [TRG 2411-26] | 5.21 | 7.05 | particularly effective MC receptor ligands
23 | NCC(CCCCN1Cc2ccccc2C(CN)C1c1ccc(-c2ccccc2)cc1)NCCO (stereo not shown) [TRG 2411-29] | 5.85 | 6.52 | 

Row | Compound | pIC50 (MCR-4) | pIC50 (MCR-1) | effectiveness as MC receptor ligand (MCR-1; binding to MC receptors, Table 1)
24 | CNC(CNC(CN)CCCCN1Cc2ccccc2C(CN)C1c1ccc(-c2ccccc2)cc1)Cc1ccccc1 (stereo not shown) [TRG 2411-30] | 5.88 | 6.52 | 
25 | CCCCNC(CN)CCCCN1Cc2ccccc2C(CN)C1c1ccc(-c2ccccc2)cc1 (stereo not shown) [TRG 2411-33] | 5.76 | 6.41 | 
26 | CCCCNC(CN)CCCCN1Cc2ccccc2C(CNCCc2ccccc2)C1c1ccc(NCC)cc1 (stereo not shown) [TRG 2411-38] | 5.88 | 7.05 | 
27 | CCNc1ccc(C2C(CNCCc3ccccc3)c3ccccc3CN2CCCCC(CN)NCCc2ccccc2)cc1 (stereo not shown) [TRG 2411-40] | 6.00 | 6.72 | 
28 | CCNc1ccc(C2C(CNCCc3ccccc3)c3ccccc3CN2CCCC[C@@H](CN)NCCc2ccc(OC)cc2)cc1 (stereo partly shown) [TRG 2411-42] | 5.81 | 6.49 | 
29 | CCNc1ccc(C2C(CNCCc3ccccc3)c3ccccc3CN2CCCCC(CN)NCc2ccccc2)cc1 (stereo not shown) [TRG 2411-43] | 5.99 | 6.72 | 
30 | CCNc1ccc(C2C(CNCCc3ccccc3)c3ccccc3CN2CCCCC(CN)NCc2ccc(OC)cc2)cc1 (stereo not shown) [TRG 2411-45] | 6.08 | 6.92 | 
31 | CCNc1ccc(C2C(CNCCc3ccccc3)c3ccccc3CN2CCCCC(CN)NCCc2ccc3ccccc3c2)cc1 (stereo not shown) [TRG 2411-46] | 5.88 | 6.05 | 
32 | CCNc1ccc(C2C(CNC3CCCCC3)c3ccccc3CN2CCCCC(CN)NCCc2ccc(Br)cc2)cc1 (stereo not shown) [TRG 2411-52] | 6.07 | 6.26 | 
33 | CCNc1ccc(C2C(CNC3CCCCC3)c3ccccc3CN2CCCCC(CN)NCCc2ccc(OC)cc2)cc1 (stereo not shown) [TRG 2411-53] | 5.78 | 6.55 | 
34 | CCNc1ccc(C2C(CNC3CCCCC3)c3ccccc3CN2CCCCC(CN)NCc2ccccc2)cc1 (stereo not shown) [TRG 2411-54] | 5.75 | 6.89 | 
35 | CCNc1ccc(C2C(CNC3CCCCC3)c3ccccc3CN2CCCCC(CN)NCc2ccc(Cl)cc2)cc1 (stereo not shown) [TRG 2411-55] | 5.69 | 7.05 | 
36 | CCNc1ccc(C2C(CNC3CCCCC3)c3ccccc3CN2CCCCC(CN)NCCc2ccc3ccccc3c2)cc1 (stereo not shown) [TRG 2411-57] | 5.92 | 6.04 | 
37 | CCNc1ccc(C2C(CNC3CCCCC3)c3ccccc3CN2CCCC[C@@H](CN)NCCC2CCCCC2)cc1 (stereo partly shown) [TRG 2411-58] | 5.95 | 6.66 | 
38 | CCNc1ccc(C2C(CN)c3ccccc3CN2CCCCC(CN)NCCc2ccccc2)cc1 (stereo not shown) [TRG 2411-63] | 5.74 | 6.62 | 
39 | CCCCNc1ccc(C2C(CNCCc3ccccc3)c3ccccc3CN2CCCCC(CN)NCC)cc1 (stereo not shown) [TRG 2411-74] | 5.65 | 6.96 | 
40 | CCCCNc1ccc(C2C(CNCCc3ccccc3)c3ccccc3CN2CCCCC(CN)NCCCC)cc1 (stereo not shown) [TRG 2411-75] | 5.98 | 6.89 | 
41 | CCCCNc1ccc(C2C(CNCCc3ccccc3)c3ccccc3CN2CCCCC(CN)NCCc2ccccc2)cc1 (stereo not shown) [TRG 2411-77] | 5.83 | 6.66 | 
42 | CCCCNc1ccc(C2C(CNCCc3ccccc3)c3ccccc3CN2CCCCC(CN)NCCc2ccc(Br)cc2)cc1 (stereo not shown) [TRG 2411-78] | 5.88 | 6.35 | 
43 | CCCCNc1ccc(C2C(CNCCc3ccccc3)c3ccccc3CN2CCCCC(CN)NCc2ccccc2)cc1 (stereo not shown) [TRG 2411-80] | 5.74 | 6.77 | 
44 | CCCCNc1ccc(C2C(CNCCc3ccccc3)c3ccccc3CN2CCCCC(CN)NCc2ccc(Cl)cc2)cc1 (stereo not shown) [TRG 2411-81] | 5.86 | 6.74 | 
45 | CCCCNc1ccc(C2C(CNCCc3ccccc3)c3ccccc3CN2CCCCC(CN)NCc2ccc(OC)cc2)cc1 (stereo not shown) [TRG 2411-82] | 5.84 | 6.54 | 
